Test results published in paper PMC4205289, “Triptolide inhibits human immunodeficiency virus type 1 replication by promoting proteasomal degradation of Tat protein” (Retrovirology, 2014).
pEC50: −log10 of the molar value. “Also recorded” adds a separate entry of the source. Like-named read-outs stand apart in the source and are kept apart here.

How the values were obtained:
[1] = system: Tat-induced HIV-1 LTR activation; test: HIV-1 LTR-luciferase reporter assay, Tat-induced, Jurkat cells; assay type: cell-based; settings: 48 h
Description: (§1) Jurkat cells were seeded in 24-well plates at a density of 2 × 10^5 cells per well. For TNF-α induction, cells were co-transfected with pLTR-Luc and pRL-TK in the presence or absence of the test compounds. Then, the cells were treated with 10 ng/mL TNF-α 36 h post-transfection. After induction for an additional 12 h, luciferase activity was analyzed. For Tat-induced LTR activation, Jurkat cells were co-transfected with pLTR-Luc (or pLTR-Luc-ΔkB), pEF1-Tat and pRL-TK, and cultured in the presence of various concentrations of test compounds for an additional 48 h before the determination of luciferase activity. Luciferase levels were expressed relative to levels in cells without induction.

[2] = system: cyclin T1; test: Western blot of endogenous protein in HeLa cells; assay type: cell-based; settings: in the presence of triptolide, Western blotting
Description: (§2) (A) HeLa cells were transfected with pEF1-FLAG-Tat in the presence of increasing concentrations of triptolide. Cells were harvested 48 h post-transfection, and protein expression levels were determined by Western blotting. (B) HeLa cells were transfected either with pEF1-GFP (left) or pEF1-Tat-GFP (right) in the presence of increasing concentrations of triptolide. Cells were harvested 48 h post-transfection, and protein expression levels were determined by Western blotting.
(§3) Cells were washed with phosphate buffered saline (PBS) and lysed with radio immunoprecipitation assay lysis buffer supplemented with complete mini protease inhibitor cocktail (Roche) at 4°C for 1 h. Proteins from cell lysates were separated by SDS-PAGE and transferred to polyvinylidene difluoride membranes. After overnight incubation with primary antibodies at 4°C, each blot was probed with horseradish peroxidase-conjugated secondary antibody. Immunoreactive signals were detected with an enhanced chemiluminescence substrate (Thermo Scientific) using an AlphaEaseH FC Imaging System (Alpha Innotech Corporation).

[3] = system: CDK9; test: Western blot of endogenous protein in HeLa cells; assay type: cell-based; settings: in the presence of triptolide, Western blotting
Description: as §2, §3

[4] = system: T1, FLAG-Tat; test: Proteasome inhibition rescue of Tat expression, Western blot, HeLa cells; assay type: cell-based, HIV-1 NL4-3; settings: 5 nM triptolide, without MG132
T1 construct: expressed in transfected cells; host or cells: HeLa
Description: Figure 6 Triptolide reduces Tat protein stability by enhancing proteasomal degradation of Tat. (A) The effect of triptolide on Tat mRNA levels. HeLa cells were transfected with pEF1-Tat in the presence of increasing concentrations of triptolide. Cells were harvested 48 h post-transfection. The steady-state mRNA levels of Tat and GAPDH were examined using semi-quantitative reverse transcription PCR analysis. RT, reverse transcriptase. (B) The effect of triptolide on Tat protein degradation. HeLa cells were transfected with pEF1-FLAG-Tat in the presence of 5 nM triptolide or vehicle (DMSO). At 28 h post-transfection, cells were treated with 20 μg/mL of CHX to arrest protein synthesis. At 0, 1, 2, 3 h post-treatment, cells were harvested to determine protein expression levels using Western blot analysis. (C) The band intensities of FLAG-Tat in panel B were measured, and their natural log values were plotted as a function of time. Results were presented as the mean plus the standard deviations (n = 3). (D) Proteasome inhibition restores Tat protein expression. HeLa cells were transfected with pEF1-FLAG-Tat in the presence or absence of 5 nM triptolide. At 48 h post-transfection, cells were treated with 20 μM of MG132, and cultured for an additional 3 h before harvest. Protein expression levels were determined by Western blot analysis. TEXT PRINTED IN THE PICTURE: (C) DMSO: Half-lives: 2.0 h | (C) Triptolide: Half-lives: 0.4 h
as §3

[5] = system: TNF-α-induced HIV-1 LTR activation; test: HIV-1 LTR-luciferase reporter assay, TNF-α-induced, Jurkat cells; assay type: cell-based; settings: TNF-α 10 ng/mL, tested concentrations up to 5 nM
Description: as §1

[6] = system: HIV-1 BaL; test: PBMC antiviral assay, p24 ELISA; assay type: cell-based; settings: for pEC50: Human immunodeficiency virus 1, BAL, PBMC, 144 h, p24, day 6 post-infection; for selectivity ratio at 6 days: human, read-out: SI (selective index, CC50/EC50)
[7] = system: TNF-α-induced HIV-1 LTR activation; test: HIV-1 LTR-luciferase reporter assay, TNF-α-induced, TZM-bl cells; assay type: cell-based; settings: TNF-α 10 ng/mL, 24 h
Description: The effect of the test compounds on HIV-1 LTR promoter activity was evaluated using the luciferase reporter systems in both TZM-bl and Jurkat cells. TZM-bl cells seeded in 96-well plates (2 × 10^4 cells/well) were treated with either 10 ng/mL TNF-α (Sigma-Aldrich) or co-transfected with pEF1-Tat and pRL-TK (for transfection efficiency normalization) using Lipofectamine 2000 (Invitrogen). The cells were then cultured in the presence of various concentrations of the test compounds. After 24 h (TNF-α stimulation) or 48 h (Tat transfection) of incubation, luciferase activity was determined from cell lysates using the StedyGlo reagent (for TNF-α treated cells) or a dual luciferase assay system (Promega, for transfected cells) as recommended by the manufacturer.

In the case of `CC(C)[C@]12O[C@H]1[C@@H]1O[C@]13[C@]1(O[C@H]1C[C@H]1C4=C(CC[C@@]13C)C(=O)OC4)[C@@H]2O` [triptolide], the “effect on Tat-induced gene expression (pLTR-Luc)” value ([1]; co-transfection with pEF1-Tat) was “inhibitory effect”, the “effect on Tat-mediated LTR activation, LTR with two mutated NF-κB binding sites” value ([1]; pLTRΔκB-Luc) was “reduced the Tat-mediated LTR activation” and the “expression level of endogenous cyclin T1” value [2] was “remained unchanged”. For the same molecule, the “expression level of endogenous CDK9” value [3] was “remained unchanged”, the Tat protein expression [4] was “reduced to undetectable level” and the “effect on TNF-α induced gene expression” value [5] was “no effect on TNF-α induced gene expression; also recorded: not active”. It also gave a pEC50 ([6]; PBMC donor A) of 8.85, a pEC50 ([6]; PBMC donor B) of 8.80 and a pEC50 ([6]; PBMC donor C) of 9.00. For the same molecule, the selectivity ratio at 6 days ([6]; PBMC donor A) was 9, the selectivity ratio at 6 days ([6]; PBMC donor B) was 9.6 and the selectivity ratio at 6 days ([6]; PBMC donor C) was 11.2. The “effect on TNF-α-induced luciferase production” value [7] was “slightly enhance TNF-α-induced luciferase production; also recorded: not active”.
